Source: patent publication US20220193103A1, “NANO-PUERARIN REGULATES TUMOR MICROENVIRONMENT AND FACILITATES CHEMO- AND IMMUNOTHERAPY IN MURINE TRIPLE NEGATIVE BREAST CANCER MODEL” (The University of North Carolina at Chapel Hill, priority 2019, published 2022)

Experiments:
[1] = test system: TGF-β activated NIH3T3 cells; assay: ROS inhibition in TGF-β activated NIH3T3 cells (Fluorometric Hydrogen Peroxide Assay Kit); format: cell-based, mouse
Method: Based on literature and Chinese medicine pharmacology, 10 anti-fibrosis TCMs were selected to screen the ROS inhibition effects on TGF-β activated NIH3T3 cells. NIH3T3 cells were pre-stimulated with 10 ng/mL TGF-β for 24 h and 2×10^3 cells/well were seeded in a 96-well black plate. Then, the cells were treated with different TCMs. After these drugs were added, the cells were further cultured for 48 h. Then the concentration of ROS was determined with the Fluorometric Hydrogen Peroxide Assay Kit according to the manufacturer's instructions. The fluorescence intensity measured by using a fluorescence microplate reader (FLx800, Biotek Instrument Inc., Winooski, VT, USA) at excitation and emission wavelengths of 485 and 530 nm, respectively.

NIH3T3 cells = format: cell-based, mouse; conditions: different concentrations, within 48 hours
Method: 1.4.4. Cytotoxicity of Puerarin. The addition of puerarin and nanoPue to NIH3T3 cells was the same as the ROS assay. After 48 h of incubation, the culture medium was discarded and the cell layers were washed twice with PBS. Then 100 μL culture medium and 10 μL MTT solution (5 mg/mL) were added and incubated for 4 h at 37° C. After the supernatant was removed, 150 μL DMSO was added and OD value was determined at 492 nm by using a multidetection microplate reader (Plate CHAMELEONTM V-Hidex). The cell viability rate of each concentration was calculated according to formula (1).
Cell viability %=(ODdosing group/ODcontrol group)×100% (1)

[2] = literature statement; cited from earlier work

## Puerarin
[1]; TGF-β activated NIH3T3 cells, different concentrations
  ROS inhibition activity at different concentrations: concentration-dependent ROS downregulation pattern
[1]; screen of ten natural compounds, 15 μg/mL, 48 h, compared with other natural compounds
  amount of ROS in TGF-β activated NIH3T3 cells: significantly reduced
NIH3T3 cells
  cytotoxicity in NIH3T3 cells (cell viability, MTT): no cytotoxicity
[2]
  solubility: poorly soluble
